Data as given in the NIST ThermoML archive (doi:10.1021/je0501484).

Experiment: mn = molality of the nth substance listed, in mol/kg
Settings: 101 kPa, Liquid

CCCCCC(=O)[O-].[Na+] [sodium hexanoate] + O
Settings	mass density, m1 = 0.5 [kg/m3]	mass density, m1 = 1 [kg/m3]	mass density, m1 = 1.5 [kg/m3]	mass density, m1 = 2.177 [kg/m3]	viscosity, m1 = 0.5 [mPa·s]	viscosity, m1 = 1 [mPa·s]	viscosity, m1 = 1.5 [mPa·s]	viscosity, m1 = 2.177 [mPa·s]
298.15 K	1014.4	1029.41	1041.88	1054.22	1.212	1.607	2.102	3.187
308.15 K	1010.74	1024.96	1036.7	1048.72	0.956	1.24	1.601	2.402
